Laboratory results reported in patent publication US20260183274A1, “PDK1 REGULATORY COMPOUND AND COMPOSITION CONTAINING THE SAME” (PROVIBIO CO., LTD., priority 2024, published 2026).

Legend:
[1] = system: MRL/lpr mice; test: Lupus animal model (MRL/lpr mice); format: in vivo, mouse; conditions: for Hair growth on the facial region: 41-week-old female MRL/lpr, GO15F 30 mg/kg, GO48 1 mg/kg, GO88 0.5 mg/kg i.p. once daily, FIG. 24
Source text: The MRL/MpJ-Faslpr/J (Hereinafter Referred to as “MRL/lpr”) used in this experiment is one of the representative animal models for systemic lupus erythematosus (SLE), known to produce various autoantibodies, including antinuclear antibodies, due to the lpr (lymphoproliferation) gene.
In this invention, the period up to 9 weeks of age was considered the pre-disease stage, and the period after 23 weeks of age was considered the post-disease stage, and efficacy verification experiments using this model were conducted.
MRL/lpr mice were imported from The Jackson Laboratory and acclimatized for one week in an SPF (Specific Pathogen Free) facility maintained at a temperature of 21-24° C., humidity of 40-60%, and a 12-hour light-dark cycle (lights on at 7:00 AM, lights off at 7:00 PM).
Subsequently, female and male MRL/lpr mice were mated at a ratio of 2:1 in the same facility, and the female offspring were administered the compound GO15F of the present invention or vehicle at a dose of 30 mg/kg […]
Urine samples were collected once a week from each individual and used for analytical experiments. […]
The protein concentration in urine collected weekly from the control group or experimental group was analyzed using ‘Quick Start™ Bradford 1× Dye Reagent (Bio-Rad, Cat. #5000205).’
In each well of a 96-well plate, 5 μl of urine sample diluted with triple-distilled water and 250 μl of 1× dye reagent were added, reacted, and the absorbance was measured at 595 nm. […]
Each kidney tissue was used to isolate total RNA using TRIzol™ (Invitrozen, Cat. #15596018). RNA from each mouse was quantified at 1 μg using a micro-quantitative spectrophotometer (ThermoFisher Scientific, ND2000) and cDNA was synthesized.
The synthesized cDNA from each mouse was quantified to a concentration of 50 ng using a micro-quantitative spectrophotometer, and qPCR was performed for the cytokines ‘IL-2, IL-6, IL-10, IL-17, TNF-α, IFN-γ’ using a SYBR green probe (CFX96, BIO-RAD).
To investigate the effects of drug administration on renal tissue in MRL/lpr mice, the tissue was fixed in 10% neutral buffered formalin at room temperature, followed by stepwise ethanol penetration for dehydration. The tissue was then embedded in xylene and paraffin.
The blocked tissues were sectioned into 4 μm thick slices using a microtome, followed by deparaffinization, hydration, and staining.
Hematoxylin & Eosin staining, PAS staining, and Masson trichrome staining were performed for pathological evaluation of the tissues.
To determine the extent of IgG deposition in kidney tissue of MRL/lpr mice, immunofluorescence staining was performed using anti-IgG antibodies on paraffin-embedded kidney tissue sections, and the staining results were examined using a fluorescence microscope.
Additionally, in 41-week-old female MRL/lpr mice, the compounds GO15F (30 mg/kg), GO48 (1 mg/kg), and GO88 (0.5 mg/kg) were administered intraperitoneally once daily.
To confirm the proliferative activity of hair follicle cells in the skin tissue of these mice, the mice were sacrificed 14 days after administration of the compounds of the present invention, and Ki-67 immunohistochemistry (IHC) was performed.
For this purpose, the excised skin tissue was fixed in formalin, embedded in paraffin blocks, and stained with a Ki-67-specific antibody on tissue sections prepared as slides.

[2] = system: BALB/c mice with induced psoriasis; test: Psoriasis animal model (Aldara cream, Imiquimod); format: in vivo, mouse
Procedure: To verify the therapeutic effect of the compound according to the present invention on psoriasis, a psoriasis animal model was established as follows, and the compound according to the present invention was administered to evaluate the alleviation of skin lesions and changes in immune cell patterns.
For the establishment of the psoriasis animal model, BALB/c mice (7 weeks old, female, 20 g) were purchased from HanabioTech Co., Ltd. and acclimatized to the rearing environment for one week.
Subsequently, the hair on the mouse back was shaved using a hair removal device for the first time, and then completely shaved using a depilatory cream (Nicrin Cream (80% thioglycolic acid, Il Dong Pharmaceutical)) for the second time. The mice were then kept for 24 hours to confirm the absence of skin damage.
[Normal control group (Normal, Not Treatment), psoriasis-induced control group (Psoriasis, Not Treatment), psoriasis-induced vehicle control group (Psoriasis, Vehicle), experimental group (GO85, GO86, GO88, GO89, PBK-2024-010, PBK-2024-026, PBK-2025-002, PBK-2025-004, PBK-2025-016, PBK-2025-017, PBK-2025-023)]. […]
Body weights of mice in each group were measured on days 1, 4, and 8 after the start of injection and psoriasis induction. […]
To evaluate the therapeutic effect in a psoriasis-induced mouse model, the PASI (Psoriasis Area and Severity Index) score was measured.
The PASI score is based on three criteria: erythema, scaling, and skin thickness, each scored from 0 (none) to 4 (severe). […]
Observations were conducted daily at the same time, and the same observer visually assessed each criterion and recorded the scores, with the results presented in FIG. 13. […]
All samples were measured in duplicate, and the absorbance was measured at 450 nm using a microplate reader.

SMILES | Hair growth on the facial region [1] | Efficacy in improving dermatological symptoms [2] | also measured
Nc1ncccc1C(=O)NCCCCCCCCCCCCN1CCOCC1 [Compound 2, 2-Amino-N-(12-morpholin-4-yl-dodecyl)-nicotinamide] | hair growth was confirmed | – | –
CC1(C)CN(CCCCCCCCCCCCC(=O)Nc2nc(N)c3[nH]cnc3n2)CCO1 [Compound 11, 12-[4-(2,2-dimethylmorpholin-4-yl)]dodecyl-N-(6-aminopurine-2-yl) carboxamide] | – | excellent efficacy in improving dermatological symptoms | –
Nc1ncccc1C(=O)NCCCCCCCCCCCCN1CCNCC1 [Compound 14, 2-Amino-N-(12-(piperazin-1-yl)dodecyl)nicotinamide] | hair growth was confirmed | excellent efficacy in improving dermatological symptoms | –
Nc1nc(NC(=O)CCCCCCCCCCCCN2CCN(CCO)CC2)nc2nc[nH]c12 [Compound 15, 12-[4-(2-hydroxyethyl)piperazin-1-yl]dodecyl-N-(6-aminopurine-2-yl) carboxamide] | – | excellent efficacy in improving dermatological symptoms | –
Nc1ncccc1C(=O)NCCCCCCCCCCCCF [Compound 57, 2-Amino-N-(12-fluoro-dodecyl)-nicotinamide] | hair growth was confirmed | – | Protein concentration in urine (proteinuria) ([1]; 30 mg/kg once daily, vs control MRL/lpr, FIG. 16): significantly lower than that in the control group; B cells, T cells and macrophages in spleen (flow cytometry) ([1]; FIG. 19): reduced the increased B cells, T cells, and macrophages; IgG deposition in kidney tissue (immunofluorescence) ([1]; FIG. 22): significantly lower; Renal pathological tissue staining (glomerular capillary loops) ([1]; H&E, PAS, Masson trichrome, FIG. 21): the glomerular capillary loops were well maintained; Concentration of anti-dsDNA IgG in blood ([1]; serum at necropsy (23 weeks), vs control MRL/lpr, FIG. 17): significantly lower; Total IgG concentration in blood ([1]; serum at necropsy, vs control MRL/lpr, FIG. 18): significantly lower
